Test results: patent US20230271950A1, “ANTIBACTERIAL PICOLINAMIDE COMPOUNDS” (University of Notre Dame Du Lac, priority 2020, published 2023)
In brackets after ≈: the same amount, converted by molar mass. Where two headings read alike, the source gives them in different places.

Tests used:
S. aureus ATCC29213 = assay: MIC against MSSA; assay type: cell-based, Staphylococcus aureus; settings: Staphylococcus aureus; MSSA ATCC 29213; Table 10, unit inferred; read-out: Activity (MIC) against S. aureus
E. faecium NCTC7171 = assay: MIC against E. faecium; assay type: cell-based, Enterococcus faecium; settings: Enterococcus faecium, NCTC7171; E. faecium NCTC 7171; Table 10, unit inferred; read-out: Activity (MIC) against E. faecium
HeLa cells = assay: XTT cytotoxicity assay with HeLa cells; assay type: cell-based; settings: Homo sapiens, Table 6
Procedure: XTT assay. Cytotoxicity assays were performed in triplicate against HeLa cells (ATCC CCL-2). The IC50 values were calculated by nonlinear regression with GraphPad Prism 5 (San Diego, Calif.).
XTT assay. XTT assays were performed with HeLa cells (ATCC CCL-2) in triplicate, as previously described (Lancet 2008, 371, 1486). IC50 values were determined by nonlinear regression using GraphPad Prism 5 (San Diego, Calif.).

C. difficile = assay: MIC by broth microdilution against C. difficile strains; assay type: cell-based, Clostridioides difficile; settings: for MIC: Clostridioides difficile
[1] = Pharmacokinetics study in mice (plasma and feces levels); assay type: in vivo; settings: for Conc. feces/MIC: dose 20 mg · kg^−1; for concentration at 8 h: female, CD-1, mouse, single oral gavage, dose 20 mg · kg^−1, feces collected after 8 h, read-out: Drug concentration in fecal samples (mg kg^−1 feces)
Procedure: Pharmacokinetics (PK) study. Mice (n=2 per time point) were given a single 100 μL solution of 5 mg/mL of compound 1 (equivalent to 20 mg/kg). Terminal blood was collected in heparinized syringes by cardiac puncture at 30 min, 1 h, 2 h, 4 h, and 8 h. The two mice at the 8-h time point were place in metabolism cages for collection of feces. Compound 1 was dissolved in 5% DMSO/95% water with 96 mg/mL of sodium bicarbonate. Blood was centrifuged at 1,000 g for 20 min at 4° C. and plasma was separated and stored at −80° C. until analysis. A 45-μL aliquot of plasma was mixed with 5 μL of H2O:ACN (1:1) and was quenched with 100 μL of acetonitrile containing 20 μM of internal standard (compound 10). The sample was centrifuged at 21,000 g for 15 min at 4° C. to precipitate the proteins, and the resulting supernatant was analyzed by UPLC-TQD detector using multiple-reaction monitoring (MRM). Calibration curves for compound 1 were prepared from 0 to 102.4 μM using a control mouse plasma (50 μL). Peak area ratios relative to internal standard and linear regression was used from which the concentrations in plasma samples from the PK study were determined.
An average of 250 mg of feces were collected at 8 h from two mice, and subsequently homogenized with 6 times the feces volume (1,500 μL of H2O:ACN 1:1) using a Bullet Blender (Next Advance, Inc., Troy, N.Y.). The homogenate was centrifuged at 21,000 g for 5 min. The fecal supernatant (72 μL) was mixed with 8 μL of a solution of H2O:ACN (1:1) and 40 μL of 50 μM of the internal standard in ACN with 0.5% formic acid. A calibration curve was prepared from 0 μM to 102.4 μM in control mouse feces. Plasma and feces were analyzed on a Waters TQD tandem quadrupole detector (Waters Corporation, Milford, Mass.) using a YMC-Triart C18 100 mm×2.0 mm column (3μ, YMC Co. Ltd, Kyoto, Japan). The chromatographic conditions consisted of elution with 30% H2O/70% ACN containing 0.10% formic acid for 5 min at a flow rate 0.5 mL/min. Mass Spectrometry acquisition was performed in the positive electrospray ionization mode with MRM. The capillary, cone, extractor and RF lens voltages were set at 2.8 kV, 40 V, 1 V and 0.1 V, respectively. The desolvation and cone gas (nitrogen) flow rates were 650 L/h and 50 L/h, respectively. The source temperature was set at 150° C. The desolvation temperature was 350° C. The MRM transitions used were 459.4→254.0 for compound 1, and 294.8→133.5 for the internal standard.
Animals. Female C57BL/6 mice weighing 18-20 g and 6-8 weeks of age were used for the efficacy study (Jackson, Bar Harbor, Me.). Female CD-1 mice (24-31 g and 7-8 weeks of age) were used for the PK study. They were housed in groups of five mice in sterile polycarbonate shoeboxes with bedding consisting of ¼-inch corncob (The Andersons Ind., Maumee, Ohio) and Alpha-Dri (Shepherd Specialty Papers, Inc., Richland, Mich.). Mice were maintained on a 12-h light/dark cycle at 72° F. and were given Teklad 2918 irradiated extruded rodent diet and water ad libitum. All procedures were performed in accordance with and approved by the University of Notre Dame Institutional Animal Care and Use Committee.
Pharmacokinetics (PK) Studies. Compounds 4, 87, 107, and 108 were dissolved in 10% DMSO, 25% propylene glycol, 15% Tween 80 and 50% water at concentrations of 5 mg/mL or 10 mg/mL. Compound 116 was dissolved in 5% DMSO, 95% water with 96 mg/mL of sodium bicarbonate. Mice (n=2 per time point) were given a single 100 μL oral gavage of the test compound (equivalent to either 10 mg/kg and/or 20 mg/kg), and terminal blood was collected in heparinized syringes by cardiac puncture at 30 min, 1 h, 2 h, 4 h, and 8 h. An average of 250 mg of feces were collected after 8 h from two mice housed in metabolism cages in each group for further analysis. Blood was centrifuged at 1000 g for 2 min at 4° C. to obtain plasma. Plasma and fecal samples were stored at −80° C. until analysis. […]

MRSA (NRS70, NRS119) = assay: MIC against MRSA strains; assay type: cell-based, Staphylococcus aureus; settings: Staphylococcus aureus, NRS70 strain; Table 3 (SAR^2 and SAR^3); read-out: MIC MRSA
C. difficile ATCC43255 = assay: Macromolecular synthesis assay (radioactive precursor incorporation); assay type: cell-based, Clostridioides difficile; settings: 0.5×MIC, N-acetyl-d-[6-^3H]glucosamine incorporation, 120 min
Procedure: FIG. 2. Mechanism of action of compound 1. (A) Macromolecular biosynthesis assays: Compound 1 was incubated with C. difficile ATCC43255 at 0.5×MIC. […] The incubation time was 60 min for DNA, 120 min for peptidoglycan synthesis and RNA, and 180 min for protein synthesis. (B-G) Imaging of C. difficile […] vegetative cells (logarithmic growth) by scanning electron microscopy.
The mechanism of action of 1 was investigated using macromolecular synthesis assays. These assays measure the incorporation of radioactive precursors ([2,8-^3H]-adenine, [5,6-^3H]-uridine, 1-[3,4,5-^3H(N)]-leucine, and N-acetyl-d-[6-^3H]glucosamine) respectively into DNA, RNA, protein, and peptidoglycan. […] This analysis visualizes the cell wall as the outermost layer of the cell envelope of Gram-positive bacteria such as C. difficile.
Macromolecular synthesis assay. The macromolecular synthesis assay was performed by established methods. […] The radiolabeled precursors were purchased from Perkin Elmer (Waltham, Mass., USA).

[2] = C. difficile, Table 8, read-out: MIC
[3] = ATCC43255, ATCC 43255, ribotype 087, Table 3 (SAR^2 and SAR^3), read-out: MIC C. difficile
[4] = MIC MRSA/MIC C. difficile, Table 3

| SMILES | MIC (S. aureus ATCC29213) [µg/mL] | MIC (E. faecium NCTC7171) [µg/mL] | IC50 (HeLa cells) [µg/mL] | MIC (C. difficile; [2]) [µg/mL] | Selectivity (C. difficile; Table 8) | Conc. feces/MIC [1] | concentration at 8 h [1] [ng/g] | MIC (C. difficile; [3]) [µg/mL] | Selectivity (C. difficile; [4]) | MIC (MRSA (NRS70, NRS119)) [µg/mL] | MIC (C. difficile; ATCC43255, C. difficile ATCC43255, FIG. 2 legend, read-out: MIC of positive controls) [µg/mL] | inhibition of cell-wall peptidoglycan biosynthesis (C. difficile ATCC43255) [%] | MIC (C. difficile; ATCC43255, C. difficile ATCC 43255, read-out: MIC against C. difficile) [µg/mL] |
| --- | --- | --- | --- | --- | --- | --- | --- | --- | --- | --- | --- | --- | --- |
| O=C(Nc1ncco1)c1ccnc(Oc2ccc(Cl)c(Cl)c2)c1 [Compound 99, 2-(3,4-Dichlorophenoxy)-N-(oxazol-2-yl)isonicotinamide] | 0.12 (≈ 0.343 µM) | 0.5 (≈ 1.43 µM) | 37 ± 1 (≈ 106 µM) |  |  |  |  |  |  |  |  |  |  |
| O=C(Nc1ncco1)c1cc(Oc2cccc(F)c2)ccn1 [Compound 107, 4-(3-Fluorophenoxy)-N-(oxazol-2-yl)picolinamide] | 64 (≈ 214 µM) | 64 (≈ 214 µM) | 88 ± 2.3 (≈ 294 µM) | 1 (≈ 3.34 µM) | >256 | 2.4 | 2400 |  |  |  |  |  |  |
| O=C(Nc1ncco1)c1cc(-c2cccc(F)c2)ccn1 [Compound 93, 4-(3-Fluorophenyl)-N-(oxazol-2-yl)picolinamide] | ≥ 128 | ≥ 128 | > 64 |  |  |  |  | 0.5 (≈ 1.77 µM) | 128 | 64 (≈ 226 µM) |  |  |  |
| Cc1onc(-c2ccccc2)c1C(=O)N[C@@H]1C(=O)N2[C@@H]1SC(C)(C)[C@@H]2C(=O)O [oxacillin, reference compound] |  |  |  |  |  |  |  |  |  |  | 8 | 51±1 |  |
| O=C([O-])c1ccc2oc(NC(=O)c3cc(Oc4ccc(F)c(F)c4)ccn3)nc2c1.[Na+] [Compound 116, Sodium 2-(4-(3,4-difluorophenoxy)picolinamido)benzo[d]oxazole-5-carboxylate] | 128 | 128 | > 128 | 0.5 | 128 | 7.4 | 3700 |  |  |  |  |  | 0.5 |
| O=C(O)c1ccc2nc(NC(=O)c3cc(-c4ccc(OC(F)(F)F)cc4)ccn3)oc2c1 [Compound 118, 2-(4-(4-(Trifluoromethoxy)phenyl)picolinamido)benzo[d]oxazole-6-carboxylic acid] | 8 (≈ 18 µM) | 64 (≈ 144 µM) | 79.9 ± 6.3 (≈ 180 µM) |  |  |  |  |  |  |  |  |  |  |
| COC(=O)c1ccc2oc(NC(=O)c3cc(Oc4ccc(F)c(F)c4)ccn3)nc2c1 [Compound 114, Methyl 2-(4-(3,4-difluorophenoxy)picolinamido)benzo[d]oxazole-5-carboxylate] | 128 (≈ 301 µM) | ≥ 128 | 53.3 ± 3.6 (≈ 125 µM) |  |  |  |  |  |  |  |  |  |  |
| O=C(Nc1ncco1)c1cc(-c2ccc(F)cc2)ccn1 [Compound 89, 4-(4-Fluorophenyl)-N-(oxazol-2-yl)picolinamide] | ≥ 128 | ≥ 128 | 170 ± 2.5 (≈ 601 µM) |  |  |  |  | 1 (≈ 3.53 µM) | 64 | 64 (≈ 226 µM) |  |  |  |
| O=C(Nc1ncco1)c1cc(-c2ccc(Cl)c(F)c2)ccn1 [Compound 92, 4-(4-Chloro-3-fluorophenyl)-N-(oxazol-2-yl)picolinamide] | ≥ 128 | ≥ 128 | > 256 |  |  |  |  | 0.25 (≈ 0.787 µM) | 512 | 128 (≈ 403 µM) |  |  |  |
| O=C(Nc1ncco1)c1cc(-c2ccc(F)c(F)c2)ccn1 [Compound 90, 4-(3,4-Difluorophenyl)-N-(oxazol-2-yl)picolinamide] | ≥ 128 | ≥ 128 | > 64 |  |  |  |  | 0.5 (≈ 1.66 µM) | 256 | 128 (≈ 425 µM) |  |  |  |
| O=C(O)c1ccc2nc(NC(=O)c3cc(-c4cccc(OC(F)(F)F)c4)ccn3)oc2c1 [Compound 119, 2-(4-(3-(Trifluoromethoxy)phenyl)picolinamido)benzo[d]oxazole-6-carboxylic acid] |  |  | 124 ± 3.3 (≈ 279 µM) |  |  |  |  |  |  |  |  |  |  |
| O=C(Nc1ncco1)c1cc(Oc2ccc(OC(F)(F)F)cc2)ccn1 [Compound 109, N-(Oxazol-2-yl)-4-(4-(trifluoromethoxy)phenoxy)picolinamide] | ≥ 128 | ≥ 128 | 77.4 ± 2.3 (≈ 212 µM) |  |  |  |  |  |  |  |  |  |  |
| O=C(Nc1ncco1)c1cc(-c2cccc(C(F)(F)F)c2)ccn1 [Compound 98, N-(Oxazol-2-yl)-4-(3-(trifluoromethyl)phenyl)picolinamide] | ≥ 128 | ≥ 128 | 115 ± 2.2 (≈ 344 µM) |  |  |  |  | 0.5 (≈ 1.5 µM) | 128 | 64 (≈ 192 µM) |  |  |  |
| O=C(Nc1ncco1)c1cc(-c2ccc(C(F)(F)F)cc2)ccn1 [Compound 97, N-(Oxazol-2-yl)-4-(4-(trifluoromethyl)phenyl)picolinamide] | ≥ 128 | ≥ 128 | 135 ± 8.6 (≈ 405 µM) |  |  |  |  | 0.25 (≈ 0.75 µM) | 512 | 128 (≈ 384 µM) |  |  |  |
| O=C(Nc1ncco1)c1cc(Oc2ccc(SC(F)(F)F)cc2)ccn1 [Compound 110, N-(Oxazol-2-yl)-4-(4-((trifluoromethyl)thio)phenoxy)picolinamide] | ≥ 128 | ≥ 128 | 91.6 ± 1.3 (≈ 240 µM) |  |  |  |  |  |  |  |  |  |  |
| O=C(Nc1ncco1)c1cc(Oc2ccc(F)c(F)c2)ccn1 [Compound 106, 4-(3,4-Difluorophenoxy)-N-(oxazol-2-yl)picolinamide] | 64 (≈ 202 µM) | 128 (≈ 403 µM) | 106 ± 2.1 (≈ 334 µM) |  |  |  |  |  |  |  |  |  |  |
| O=C(Nc1ncco1)c1cc(-c2cc(F)cc(F)c2)ccn1 [Compound 94, 4-(3,5-Difluorophenyl)-N-(oxazol-2-yl)picolinamide] | ≥ 128 | ≥ 128 | 40.1 ± 1.6 (≈ 133 µM) |  |  |  |  | 1 (≈ 3.32 µM) | 64 | 64 (≈ 212 µM) |  |  |  |
